From patent US20240376153A1, “CNP CYCLIC PEPTIDE, AND MEDICINE, EXTERNAL PREPARATION AND COSMETIC EACH CONTAINING SAID CYCLIC PEPTIDE” (Igisu Co., Ltd., priority 2015, published 2024)
“Also recorded” adds a separate entry of the source. Positions of bridges follow the written chain, without caps; N, C: chain ends. Residues, ends and D or L forms follow the SMILES beside them. No end group written: not given here.

Columns and labels:
[1] = system: nasal cavity, the affected site; assay: Effect on nose of cyclic peptides in which amino acid was substituted; conditions: for irritation upon nasal application: nasal application once/day
Procedure: The obtained cyclic peptide was combined with purified water at 1, 5, 30, 100, 500 μg/ml and applied to the affected site. Formulations A to E in the tables refers to the cyclic peptide of 1, 5, 30, 100, 500 μg/ml, respectively.

affected site of skin = assay: Effect on skin of cyclic peptides in which amino acid was substituted; format: in vivo, human
Procedure: Formulations A to E refers to cyclic peptide concentration of 1, 5, 30, 100, 500 μg/ml, respectively.

[2] = atopic dermatitis, Formulation C (30 μg/ml in purified water) applied to affected site

## CC[C@H](C)[C@@H]1NC(=O)[C@H](CCCNC(=N)N)NC(=O)[C@H](CC(=O)O)NC(=O)[C@H](CC(C)C)NC(=O)[C@H](CCCCN)NC(=O)[C@H](CC(C)C)NC(=O)CNC(=O)[C@H](Cc2ccccc2)NC(=O)[C@@H](N)CSSC[C@@H](C(=O)O)NC(=O)CNC(=O)[C@H](CC(C)C)NC(=O)CNC(=O)[C@H]([C@@H](C)O)NC(=O)[C@H](CCSC)NC(=O)[C@H]([C@@H](C)O)NC(=O)CNC1=O [SEQ ID NO: 39] (H-CFGLKLDRIGTMTGLGC-OH; disulfide 1-17; N-terminus and C-terminus assumed)
[1]; Formulation C = 30 μg/ml
  irritation upon nasal application: upon blowing. There was no irritation upon nasal

## CC[C@H](C)[C@@H]1NC(=O)CNC(=O)[C@H]([C@@H](C)O)NC(=O)[C@H](CCSC)NC(=O)[C@H](CO)NC(=O)CNC(=O)[C@H]([C@@H](C)CC)NC(=O)[C@H](CCCNC(=N)N)NC(=O)[C@H](CC(=O)O)NC(=O)[C@H](CCSC)NC(=O)[C@H](CCCCN)NC(=O)[C@H](CC(C)C)NC(=O)CNC(=O)[C@H](Cc2ccccc2)NC(=O)[C@@H](N)CSSC[C@@H](C(=O)O)NC(=O)CNC1=O [SEQ ID NO: 53] (H-CFGLKMDRIGSMTGIGC-OH; disulfide 1-17; N-terminus and C-terminus assumed)
[1]; Formulation C = 30 μg/ml
  irritation upon nasal application: upon blowing. There was no irritation upon nasal

## CC[C@H](C)[C@@H]1NC(=O)CNC(=O)[C@H](CO)NC(=O)[C@H](CCSC)NC(=O)[C@H](CO)NC(=O)CNC(=O)[C@H]([C@@H](C)CC)NC(=O)[C@H](CCCNC(=N)N)NC(=O)[C@H](CC(=O)O)NC(=O)[C@H](CCSC)NC(=O)[C@H](CCCCN)NC(=O)[C@H](CC(C)C)NC(=O)[C@H](C)NC(=O)[C@H](Cc2ccccc2)NC(=O)[C@@H](N)CSSC[C@@H](C(=O)O)NC(=O)CNC1=O [SEQ ID NO: 50] (H-CFALKMDRIGSMSGIGC-OH; disulfide 1-17; N-terminus and C-terminus assumed)
[1]; Formulation C = 30 μg/ml
  irritation upon nasal application: stopped. There was no irritation upon nasal application.

## CC[C@H](C)[C@@H]1NC(=O)CNC(=O)[C@H]([C@@H](C)O)NC(=O)[C@H](CCSC)NC(=O)[C@H](CO)NC(=O)CNC(=O)[C@H]([C@@H](C)CC)NC(=O)[C@H](CCCNC(=N)N)NC(=O)[C@H](CC(=O)O)NC(=O)[C@H](CC(C)C)NC(=O)[C@H](CCCCN)NC(=O)[C@H](CC(C)C)NC(=O)CNC(=O)[C@H](Cc2ccccc2)NC(=O)[C@@H](N)CSSC[C@@H](C(=O)O)NC(=O)CNC1=O [SEQ ID NO: 41] (H-CFGLKLDRIGSMTGIGC-OH; disulfide 1-17; N-terminus and C-terminus assumed)
[1]; Formulation C = 30 μg/ml
  irritation upon nasal application: There was no irritation upon nasal application.

## CC[C@H](C)[C@@H]1NC(=O)[C@H](CCCNC(=N)N)NC(=O)[C@H](CC(=O)O)NC(=O)[C@H](CC(C)C)NC(=O)[C@H](CCCCN)NC(=O)[C@H](CC(C)C)NC(=O)[C@H](C)NC(=O)[C@H](Cc2ccccc2)NC(=O)[C@@H](N)CSSC[C@@H](C(=O)O)NC(=O)CNC(=O)[C@H](CC(C)C)NC(=O)CNC(=O)[C@H]([C@@H](C)O)NC(=O)[C@H](CCSC)NC(=O)[C@H](CO)NC(=O)CNC1=O [SEQ ID NO: 34] (H-CFALKLDRIGSMTGLGC-OH; disulfide 1-17; N-terminus and C-terminus assumed)
[1]; Formulation B = 5 μg/ml
  irritation upon nasal application: There was no irritation upon nasal application.

## CC[C@H](C)[C@@H]1NC(=O)CNC(=O)[C@H](CO)NC(=O)[C@H](CCSC)NC(=O)[C@H]([C@@H](C)O)NC(=O)CNC(=O)[C@H]([C@@H](C)CC)NC(=O)[C@H](CCCNC(=N)N)NC(=O)[C@H](CC(=O)O)NC(=O)[C@H](CCSC)NC(=O)[C@H](CCCCN)NC(=O)[C@H](CC(C)C)NC(=O)CNC(=O)[C@H](Cc2ccccc2)NC(=O)[C@@H](N)CSSC[C@@H](C(=O)O)NC(=O)CNC1=O [SEQ ID NO: 52] (H-CFGLKMDRIGTMSGIGC-OH; disulfide 1-17; N-terminus and C-terminus assumed)
[1]; Formulation C = 30 μg/ml
  irritation upon nasal application: clear. There was no irritation upon nasal application.

## CC[C@H](C)[C@@H]1NC(=O)CNC(=O)[C@H]([C@@H](C)O)NC(=O)[C@H](CCSC)NC(=O)[C@H](CO)NC(=O)CNC(=O)[C@H]([C@@H](C)CC)NC(=O)[C@H](CCCNC(=N)N)NC(=O)[C@H](CC(=O)O)NC(=O)[C@H](CCSC)NC(=O)[C@H](CCCCN)NC(=O)[C@H](CC(C)C)NC(=O)[C@H](C)NC(=O)[C@H](Cc2ccccc2)NC(=O)[C@@H](N)CSSC[C@@H](C(=O)O)NC(=O)CNC1=O [SEQ ID NO: 59] (H-CFALKMDRIGSMTGIGC-OH; disulfide 1-17; N-terminus and C-terminus assumed)
[1]; Formulation D = 100 μg/ml
  irritation upon nasal application: upon blowing. There was no irritation upon nasal

## CC[C@H](C)[C@@H]1NC(=O)CNC(=O)[C@H](CO)NC(=O)[C@H](CCSC)NC(=O)[C@H]([C@@H](C)O)NC(=O)CNC(=O)[C@H]([C@@H](C)CC)NC(=O)[C@H](CCCNC(=N)N)NC(=O)[C@H](CC(=O)O)NC(=O)[C@H](CCSC)NC(=O)[C@H](CCCCN)NC(=O)[C@H](CC(C)C)NC(=O)[C@H](C)NC(=O)[C@H](Cc2ccccc2)NC(=O)[C@@H](N)CSSC[C@@H](C(=O)O)NC(=O)CNC1=O [SEQ ID NO: 58] (H-CFALKMDRIGTMSGIGC-OH; disulfide 1-17; N-terminus and C-terminus assumed)
[1]; Formulation B = 5 μg/ml
  irritation upon nasal application: There was no irritation upon nasal application.

## SEEQ ID NO: 3 (CFGLKLDRIGSMSGLGC; disulfide 1-17)
[1]; nasal application for comparison of right and left in one subject, Formulation A = 1 μg/ml, once/day
  Post-treatment diagnostic skin impression: After 3 min, nasal discharge did not stop; also recorded: After 2 min, nose was not clear

## CC[C@H](C)[C@@H]1NC(=O)[C@H](CCCNC(=N)N)NC(=O)[C@H](CC(=O)O)NC(=O)[C@H](CC(C)C)NC(=O)[C@H](CCCCN)NC(=O)[C@H](CC(C)C)NC(=O)CNC(=O)[C@H](Cc2ccccc2)NC(=O)[C@@H](N)CSSC[C@@H](C(=O)O)NC(=O)CNC(=O)[C@H](CC(C)C)NC(=O)CNC(=O)[C@H](C)NC(=O)[C@H](CCSC)NC(=O)[C@H](CO)NC(=O)CNC1=O [SEQ ID NO: 16] (H-CFGLKLDRIGSMAGLGC-OH; disulfide 1-17; N-terminus and C-terminus assumed)
[1]; Formulation C = 30 μg/ml
  irritation upon nasal application: clear. There was no irritation upon nasal application.

## CC[C@H](C)[C@@H]1NC(=O)[C@H](CCCNC(=N)N)NC(=O)[C@H](CC(=O)O)NC(=O)[C@H](CC(C)C)NC(=O)[C@H](CCCCN)NC(=O)[C@H](CC(C)C)NC(=O)[C@H](C)NC(=O)[C@H](Cc2ccccc2)NC(=O)[C@@H](N)CSSC[C@@H](C(=O)O)NC(=O)CNC(=O)[C@H](CC(C)C)NC(=O)CNC(=O)[C@H](CO)NC(=O)[C@H](CCSC)NC(=O)[C@H]([C@@H](C)O)NC(=O)CNC1=O [SEQ ID NO: 33] (H-CFALKLDRIGTMSGLGC-OH; disulfide 1-17; N-terminus and C-terminus assumed)
[1]; Formulation C = 30 μg/ml
  irritation upon nasal application: There was no irritation upon nasal application.

## SEQ ID NO: 38: cyclic peptide in which two amino acids have been substituted (CFGLKMDRIGSMSGIGC; disulfide 1-17)
Affected site of skin; [2]
  Post-treatment diagnostic skin impression: After 1 min, itches were eliminated; also recorded: improved. After 3 min, skin was almost normalized and; also recorded: moisturized
Affected site of skin; contact dermatitis, Formulation C (30 μg/ml)
  Post-treatment diagnostic skin impression: After 1 min, itches was remitted; also recorded: After 3 min, swelling lessened, erythema was remitted
Affected site of skin; psoriasis vulgaris, Formulation C (30 μg/ml)
  Post-treatment diagnostic skin impression: After 3 min, scales and infiltration were remitted
Affected site of skin; rough skin, contact dermatitis, Formulation A (1 μg/ml), two-sided application (right vs left)
  Post-treatment diagnostic skin impression: After 2 min, rought desiccation and erythema was remitted,; also recorded: skin texture was improved and moisturized
Affected site of skin; rough skin, wrinkles, Formulation B (5 μg/ml)
  Post-treatment diagnostic skin impression: shallowed, skin was full and given resilience.
Affected site of skin; rough skin, Formulation A (1 μg/ml)
  Post-treatment diagnostic skin impression: kept moistened.

## CC[C@H](C)[C@@H]1NC(=O)[C@H](CCCNC(=N)N)NC(=O)[C@H](CC(=O)O)NC(=O)[C@H](CC(C)C)NC(=O)[C@H](CCCCN)NC(=O)[C@H](CC(C)C)NC(=O)CNC(=O)[C@H](Cc2ccccc2)NC(=O)[C@@H](N)CSSC[C@@H](C(=O)O)NC(=O)CNC(=O)[C@H](CCSC)NC(=O)CNC(=O)[C@H](CO)NC(=O)[C@H](CCSC)NC(=O)[C@H](CO)NC(=O)CNC1=O [SEQ ID NO: 20] (H-CFGLKLDRIGSMSGMGC-OH; disulfide 1-17; N-terminus and C-terminus assumed)
[1]; Formulation C = 30 μg/ml
  irritation upon nasal application: There was no irritation upon nasal application.

## SEQ ID NO: 15: cyclic peptide in which one amino acid has been substituted (CFGLKLDRIGSMTGLGC; disulfide 1-17)
Affected site of skin; psoriasis vulgaris, Formulation B (5 μg/ml)
  Post-treatment diagnostic skin impression: remarkably remitted, crusts were eliminated.
Affected site of skin; psoriasis, Formulation B (5 μg/ml)
  Post-treatment diagnostic skin impression: After 3 min, scales were remitted. 3 min after further; also recorded: reduced
Affected site of skin; rough skin, wrinkles, Formulation A (1 μg/ml)
  Post-treatment diagnostic skin impression: kept moistened, facial erythema and scales were normalized.
Affected site of skin; seborrheic dermatitis, Formulation C (30 μg/ml)
  Post-treatment diagnostic skin impression: Immediately after application, itches were remitted

## SEQ ID NO: 49: cyclic peptide in which three amino acids have been substituted (CFALKMDRIGSMTGLGC; disulfide 1-17)
Affected site of skin; psoriasis vulgaris, Formulation A (1 μg/ml)
  Post-treatment diagnostic skin impression: erythema were remitted.

## SEQ ID NO: 17: cyclic peptide in which one amino acid has been substituted (CFGLKLDRIGSMSGAGC; disulfide 1-17)
Affected site of skin; [2]
  Post-treatment diagnostic skin impression: Immediately after application, itches were eliminated; also recorded: remitted
